Reference: PubChem BioAssay (NCI)
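Five concentrations, 48 hours, 96-well plates. TGI denotes the concentration required for complete inhibition of growth.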

Columns and labels:
Assay in all cases: NCI anticancer screen, dose series, 48 h
EKVX NSCLC = tested on: EKVX NSCLC
CCRF-CEM leukemia = tested on: CCRF-CEM leukemia
HT29 colon = tested on: HT29 colon
RPMI-8226 leukemia = tested on: RPMI-8226 leukemia
OVCAR-3 ovarian = tested on: OVCAR-3 ovarian
SF-295 CNS = tested on: SF-295 CNS
SW-620 colon = tested on: SW-620 colon
OVCAR-8 ovarian = tested on: OVCAR-8 ovarian
RXF 393 renal = tested on: RXF 393 renal
SN12C renal = tested on: SN12C renal
SF-268 CNS = tested on: SF-268 CNS
SF-539 CNS = tested on: SF-539 CNS
TK-10 renal = tested on: TK-10 renal
SK-MEL-28 melanoma = tested on: SK-MEL-28 melanoma
HCT-15 colon = tested on: HCT-15 colon
SK-MEL-2 melanoma = tested on: SK-MEL-2 melanoma
OVCAR-5 ovarian = tested on: OVCAR-5 ovarian
IGROV1 ovarian = tested on: IGROV1 ovarian
SNB-75 CNS = tested on: SNB-75 CNS

| SMILES | TGI (EKVX NSCLC) [µM] | TGI (CCRF-CEM leukemia) [µM] | TGI (HT29 colon) [µM] | TGI (RPMI-8226 leukemia) [µM] | TGI (OVCAR-3 ovarian) [µM] | TGI (SF-295 CNS) [µM] | TGI (SW-620 colon) [µM] | TGI (OVCAR-8 ovarian) [µM] | TGI (RXF 393 renal) [µM] | TGI (SN12C renal) [µM] | TGI (SF-268 CNS) [µM] | TGI (SF-539 CNS) [µM] | TGI (TK-10 renal) [µM] | TGI (SK-MEL-28 melanoma) [µM] | TGI (HCT-15 colon) [µM] | TGI (SK-MEL-2 melanoma) [µM] | TGI (OVCAR-5 ovarian) [µM] | TGI (IGROV1 ovarian) [µM] | TGI (SNB-75 CNS) [µM] |
| --- | --- | --- | --- | --- | --- | --- | --- | --- | --- | --- | --- | --- | --- | --- | --- | --- | --- | --- | --- |
| O=C(CCc1cccc(O)c1)NCCc1cccc(OCc2ccccc2)c1 | 62.2 | 42.4 | 30.7 | > 60.1 | 26 | 32.9 | > 56.5 | 67.9 | 46.4 | 45.1 | 43 | 30.7 | 55.2 | 31.8 | 49.3 | 32.3 | 57.9 | 25.2 | – |
| Cc1cc(C)c(NS(=O)c2cccc([N+](=O)[O-])c2)c(C)c1 (configuration not stated) | – | > 100 | > 100 | > 100 | > 100 | > 100 | > 100 | > 100 | > 100 | > 100 | > 100 | > 100 | > 100 | > 100 | > 100 | – | > 100 | – | – |
| O=c1c2ncn(CCCl)c2n(-c2ccccc2)c(=S)n1-c1ccccc1 | > 100 | > 100 | > 100 | > 100 | > 100 | > 100 | > 100 | > 100 | > 100 | > 100 | > 100 | > 100 | > 100 | > 100 | > 100 | > 100 | > 100 | > 100 | – |
| O=C(O)c1cc(N(Cc2ccccc2O)Cc2cc(O)ccc2O)ccc1O | > 100 | > 100 | > 100 | > 100 | > 100 | > 100 | > 100 | > 100 | > 100 | > 100 | > 100 | > 100 | > 100 | > 100 | > 100 | > 100 | > 100 | > 100 | – |
| O=C1C=C(Nc2ccccc2C(=O)CC(=O)C(=O)Nc2ccc(Cl)c(Cl)c2)c2ccccc2C1=O | – | > 100 | > 100 | > 100 | > 100 | > 100 | – | > 100 | > 100 | > 100 | > 100 | > 100 | – | 37.4 | > 100 | > 100 | > 100 | > 100 | – |
| c1ccc2c3nnc(c2c1)SCCSCCCSCCS3 | > 100 | > 100 | > 100 | – | > 100 | > 100 | > 100 | > 100 | 95.7 | > 100 | > 100 | 40.6 | > 100 | > 100 | > 100 | > 100 | > 100 | > 100 | 18.5 |
| N#Cc1ccccc1Nc1ccccc1S | > 100 | 77.4 | > 100 | – | – | 65.4 | 47.1 | 94 | 53 | 97.1 | > 100 | 35.8 | > 100 | > 100 | – | > 100 | 97.8 | 71.2 | – |
